Measured values reported in PubChem BioAssay (NCI).
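Values below derive from 48-hour exposures of cells grown in 96-well plates, with endpoints linearly interpolated between the two concentrations bracketing the appropriate inhibition level. At the TGI there is no net growth.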 Where a SMILES comes first, the peptide text is derived from it. [ ]: non-standard residue; d: D form. The star is where a group is joined. Phe(4-NO2) = N[CH](Cc1ccc([N+](=O)[O-])cc1)C(=O)O; Boc = CC(C)(C)OC(=O)*; OtBu = CC(C)(C)O*

What was measured:
Test in all cases: DTP human tumour cell line panel, 48 h
[1] = test system: M14 melanoma
[2] = test system: SW-620 colon
[3] = test system: 786-0 renal
[4] = test system: UACC-257 melanoma
[5] = test system: SF-295 CNS
[6] = test system: IGROV1 ovarian
[7] = test system: SNB-75 CNS
[8] = test system: SF-539 CNS
[9] = test system: A549 NSCLC
[10] = test system: NCI/ADR-RES ovarian

Row | SMILES | TGI [1] [µM] | TGI [2] [µM] | TGI [3] [µM] | TGI [4] [µM] | TGI [5] [µM] | TGI [6] [µM] | TGI [7] [µM] | TGI [8] [µM] | TGI [9] [µM] | TGI [10] [µM]
1 | COc1ccc(S(=O)(=O)Nc2ccc(-c3csc(N4C(=O)/C(=C/C=C\c5ccccc5)N=C4c4ccccc4)n3)cc2)cc1Cl | 83.6 | > 100 | > 100 | > 100 | > 100 | 56.5 | > 100 | > 100 | > 100 | 73.8
2 | CN(Cc1nc2c(N)nc(N)nc2nc1N)c1ccc(C(=O)NC(CCC(=O)O)C(=O)O)cc1 (stereo not drawn) | > 100 | > 100 | > 100 | > 100 | > 100 | > 100 | > 100 | > 100 | > 100 | > 100
3 | CC1=CC(c2ccccc2)n2c(nc3cc4ccccc4cc32)N1 (stereo not drawn) | > 100 | > 100 | > 100 | > 100 | > 100 | > 100 | > 100 | > 100 | > 100 | > 100
4 | COC1(OC)/C(=C(\N)C=O)NC(C)(C)N1O | > 100 | > 100 | > 100 | > 100 | > 100 | > 100 | > 100 | > 100 | > 100 | > 100
5 | COC(=O)c1ccc(OCc2ccc3nc(-c4ccccc4)c(Cl)nc3c2)cc1 | > 100 | > 100 | 48.9 | > 100 | > 100 | > 100 | 55.4 | > 100 | > 100 | > 100
6 | COC(=O)C1(Cc2ccccc2)Cc2ccccc2C1=O (stereo not drawn) | > 100 | > 100 | > 100 | > 100 | > 100 | > 100 | > 100 | > 100 | > 100 | 72.3
7 | CCOc1cc(C=O)ccc1O | > 100 | > 100 | > 100 | > 100 | > 100 | > 100 | > 100 | > 100 | > 100 | > 100
8 | CCC1(O)CN(CCOC)[C@H]2C[C@@H]1C(=O)c1[nH]c3ccccc3c12 (stereo partly drawn) | > 100 | > 100 | > 100 | > 100 | > 100 | > 100 | > 100 | > 100 | > 100 | > 100
9 | COC(=O)C(Cc1ccc([N+](=O)[O-])cc1)NC(=O)C(CC(=O)OC(C)(C)C)NC(=O)OC(C)(C)C (stereo not drawn) (Boc-Asp(OtBu)-[Phe(4-NO2)]-OMe; configuration not given here) | > 100 | > 100 | > 100 | > 100 | > 100 | > 100 | > 100 | > 100 | > 100 | > 100
10 | c1csc(-c2ccc(-c3ccc(-c4cccs4)s3)s2)c1 | > 100 | > 100 | > 100 | > 100 | > 100 | > 100 | > 100 | > 100 | > 100 | > 100
11 | C/C(=C/CC[C@](C)(OC1OC(CO)C(O)C(O)C1O)[C@H]1CC[C@]2(C)[C@@H]1CC[C@@H]1[C@@]3(C)CC[C@H](O)C(C)(C)[C@@H]3C[C@H](O)[C@]12C)CO (stereo partly drawn) | > 100 | 62.4 | 61.2 | 55.3 | 35.1 | > 100 | 56 | 35.6 | > 100 | > 100
12 | O=C(O)c1ccccc1-c1ccccc1C(=O)c1ccccc1 | > 100 | > 100 | > 100 | > 100 | > 100 | > 100 | > 100 | > 100 | > 100 | > 100
13 | O=C(NCCCCl)c1c(O)c2ccccc2[nH]c1=O | > 100 | > 100 | > 100 | > 100 | > 82.5 | > 100 | > 77.8 | > 100 | > 100 | > 100
14 | C=C(CCC(C(=O)O)C1CCC2(C)C3=C(CCC12C)C1(C)CCC(O)C(C)(C)C1CC3)C(C)C (stereo not drawn) | > 100 | > 100 | > 100 | > 100 | > 100 | 63.1 | > 100 | > 100 | > 100 | 70.5
15 | O=C(O)CCCc1nc2c(n1-c1ccccc1)C(=O)c1ccccc1C2=O | > 100 | > 100 | > 100 | > 100 | > 100 | > 100 | > 100 | > 100 | > 100 | > 100
16 | COc1cccc(N2N=C3c4ccccc4-n4c(nc5ccccc54)C3C2N)c1 (stereo not drawn) | > 100 | > 100 | > 100 | > 100 | > 100 | > 100 | > 100 | > 100 | > 100 | > 100
17 | COc1cc(O)c2c(c1)C(O)C(O)CC1OC1C(=O)/C=C/CC(C)OC2=O (stereo not drawn) | 11.8 | 6.84 | 13.8 | 2.48 | 46.6 | 20.1 | 24.6 | 17.9 | 67.8 | 30.3
18 | CCOP(=O)(OCC)C(F)(F)CC1CCCCC1 | > 10 | > 10 | > 10 | > 10 | > 10 | > 10 | > 10 | > 10 | > 10 | > 10
19 | COCCCN1C(=O)C2c3[nH]c4ccccc4c3C3CCC(C(C)(C)C)CC3C2C1=O (stereo not drawn) | 39 | > 100 | 63.1 | 79.4 | 56.3 | > 100 | > 100 | 70.2 | > 100 | > 10
20 | Cc1ccc(S(=O)(=O)NC(=O)NS(=O)(=O)O)cc1 | > 100 | > 100 | > 100 | > 100 |  | > 100 | > 100 | > 100 | > 100 | > 100
21 | COc1ccc(-c2c(C(C)=O)c(C)n(C3OC(CO)C(O)C(O)C3O)c(=S)c2C#N)cc1 (stereo not drawn) | > 100 | > 100 |  | > 100 | > 100 | > 100 | > 100 | > 100 | > 100 | > 100
